{"source": "paper PMC4822253", "about": "“Inhibition of BMP and of TGFβ receptors downregulates expression of XIAP and TAK1 leading to lung cancer cell death” (Molecular Cancer, 2016)", "key": {"Alk2/ACVRR1": {"biological_target": "T1, Alk2/ACVRR1 (Homo sapiens, UniProt Q04771)", "T1 sequence (Q04771 21-509)": "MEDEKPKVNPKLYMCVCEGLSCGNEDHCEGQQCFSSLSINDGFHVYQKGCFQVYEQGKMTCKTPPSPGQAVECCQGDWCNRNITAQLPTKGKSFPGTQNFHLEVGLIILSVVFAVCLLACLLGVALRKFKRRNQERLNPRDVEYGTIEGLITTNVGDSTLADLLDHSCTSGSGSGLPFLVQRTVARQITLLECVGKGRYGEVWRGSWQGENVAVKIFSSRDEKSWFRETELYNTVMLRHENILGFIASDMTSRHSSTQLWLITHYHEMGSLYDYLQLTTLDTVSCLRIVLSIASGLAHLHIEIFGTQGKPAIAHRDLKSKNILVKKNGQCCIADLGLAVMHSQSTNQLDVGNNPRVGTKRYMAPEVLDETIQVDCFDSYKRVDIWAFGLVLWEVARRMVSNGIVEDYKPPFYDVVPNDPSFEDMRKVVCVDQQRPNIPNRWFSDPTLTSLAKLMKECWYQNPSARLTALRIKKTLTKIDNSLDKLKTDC", "conditions": "read-out: IC50 Alk2/ACVRR1; kinase activity; ATP 10 Micromolar; 10-point, duplicate", "protocol": "(§1) This was a 10-point assay starting from 100 μM to 100 nM performed in duplicate. The ATP concentration was 10 Micromolar."}, "Alk3/BMPR1A": {"biological_target": "Alk3/BMPR1A (Homo sapiens, UniProt P36894)", "sequence (P36894 24-532)": "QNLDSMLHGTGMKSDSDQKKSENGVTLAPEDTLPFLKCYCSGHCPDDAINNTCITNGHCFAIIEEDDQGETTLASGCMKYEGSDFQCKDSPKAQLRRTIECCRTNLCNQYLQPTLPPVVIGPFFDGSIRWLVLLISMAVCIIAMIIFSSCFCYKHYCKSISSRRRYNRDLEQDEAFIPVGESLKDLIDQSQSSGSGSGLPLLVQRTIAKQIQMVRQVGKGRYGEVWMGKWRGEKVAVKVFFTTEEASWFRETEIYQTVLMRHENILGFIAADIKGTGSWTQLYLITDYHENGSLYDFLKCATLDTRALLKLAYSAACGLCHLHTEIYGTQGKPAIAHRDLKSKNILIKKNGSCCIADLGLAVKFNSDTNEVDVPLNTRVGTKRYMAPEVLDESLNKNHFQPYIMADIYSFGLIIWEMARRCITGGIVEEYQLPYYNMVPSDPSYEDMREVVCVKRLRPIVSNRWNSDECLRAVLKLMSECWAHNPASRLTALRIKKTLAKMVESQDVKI", "conditions": "read-out: IC50 Alk3/BMPR1A; kinase activity; ATP 10 Micromolar; 10-point, duplicate", "protocol": "as §1"}, "Alk6": {"biological_target": "Alk6 (Homo sapiens, UniProt O00238)", "sequence (O00238 149-502 limits assumed)": "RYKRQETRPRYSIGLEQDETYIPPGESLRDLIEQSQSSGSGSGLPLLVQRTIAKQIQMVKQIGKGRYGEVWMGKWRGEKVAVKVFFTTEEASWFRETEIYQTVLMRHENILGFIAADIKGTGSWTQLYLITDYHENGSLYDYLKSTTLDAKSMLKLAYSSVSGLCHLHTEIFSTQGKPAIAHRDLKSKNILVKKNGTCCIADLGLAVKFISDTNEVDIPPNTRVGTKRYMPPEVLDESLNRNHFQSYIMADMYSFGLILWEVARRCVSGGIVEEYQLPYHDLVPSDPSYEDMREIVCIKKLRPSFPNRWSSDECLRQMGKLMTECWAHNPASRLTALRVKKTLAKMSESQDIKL", "conditions": "read-out: IC50 Alk6/BMPRII; kinase activity; ATP 10 Micromolar; 10-point, duplicate", "protocol": "as §1"}, "[1]": {"assay": "Plasma protein binding by equilibrium dialysis", "format": "in vitro ADME", "conditions": "human plasma"}, "[2]": {"system": "H1299 Id1-luc tumor xenografts", "assay": "Tumor xenograft Id1 promoter-luciferase luminescence", "format": "in vivo, nude mice", "conditions": "3 mg/kg IP; 4 h, 24 h, and 48 h following treatment; greatest effect at 24 h", "protocol": "H1299 cells were stably transfected with the Id1 promoter-luciferase reporter. Five million cells were injected subcutaneously into the flank of NCI female nude mice. After approximately 12 days the mice were anesthetized and the luciferase activity measured. Baseline luciferase activity was obtained just prior to the injection of inhibitors. Mice were injected IP with 150 mg/kg luciferin-D and after a 15-min uptake period tumors were imaged with IVIS Spectrum and analyzed using Living Image software. […] The tumors were harvested on ice, homogenized, and placed in lysis buffer."}, "H1299 tumor xenografts": {"system": "H1299 tumor xenografts", "assay": "Western blot analysis of tumor xenografts", "format": "in vivo, nude mice", "protocol": "Total cellular protein was prepared using RIPA buffer containing a protease inhibitor cocktail and protein concentration was measured using the BCA assay as described. In brief, protein was analyzed by SDS-PAGE, transferred to nitrocellulose (Schleicher and Schuell, Keene, NH). After blocking, the blots were incubated overnight at 4 °C with the appropriate primary antibody in Tris-buffered saline with 1 % Tween (TBST) and 5 % BSA. Secondary antibodies were applied for 1 h at room temperature. Specific proteins were detected using the enhanced chemiluminescence system (Amersham, Arlington Heights, IL). […]\nH1299 cells were stably transfected with the Id1 promoter-luciferase reporter. […] After approximately 12 days the mice were anesthetized and the luciferase activity measured. […] Mice were injected IP with 150 mg/kg luciferin-D and after a 15-min uptake period tumors were imaged with IVIS Spectrum and analyzed using Living Image software. […]"}, "A549 cells": {"system": "A549 cells", "assay": "Western blot analysis of cells in culture", "format": "cell-based", "protocol": "(§2) Total cellular protein was prepared using RIPA buffer containing a protease inhibitor cocktail and protein concentration was measured using the BCA assay as described. In brief, protein was analyzed by SDS-PAGE, transferred to nitrocellulose (Schleicher and Schuell, Keene, NH). After blocking, the blots were incubated overnight at 4 °C with the appropriate primary antibody in Tris-buffered saline with 1 % Tween (TBST) and 5 % BSA. Secondary antibodies were applied for 1 h at room temperature. Specific proteins were detected using the enhanced chemiluminescence system (Amersham, Arlington Heights, IL). The primary antibodies that were used were rabbit monoclonal anti-pSmad 1/5, rabbit monoclonal anti-pSmad2, rabbit monoclonal anti-Smad2, rabbit monoclonal anti-pTAK1, rabbit monoclonal XIAP, rabbit anti-monoclonal p-p65, rabbit monoclonal anti-activated caspase-3, rabbit polyclonal anti-BMPRII, and rabbit monoclonal anti-EGR-1 (Cell signaling Technology, Danvers MA), Rabbit monoclonal anti-TAK1 (Invitrogen, Grand Island NY), rabbit anti-actin, an affinity isolated antigen specific antibody (Sigma, Saint Louis, MO), rabbit monoclonal anti-Id1 and rabbit monoclonal anti-Id3 (Calbioreagents, San Mateo, CA), rabbit polyclonal anti-GAPDH (Sigma, St. Louis, MO) and rabbit polyclonal pMEK-1/2 (Cell Signaling, Danvers MA)."}, "H1299 cells": {"system": "H1299 cells", "assay": "Western blot analysis of cells in culture", "format": "cell-based", "conditions": "H1299 cells", "protocol": "as §2"}, "H1299 Id1-luc cells": {"system": "H1299 Id1-luc cells", "assay": "Id1-promoter luciferase reporter assay", "format": "cell-based", "conditions": "1.0 μM and 2.5 μM, 48 h", "protocol": "H1299 cells were stably transfected with the Id1-promoter luciferase reporter. Treated cells were lysed with 1X luciferase lysis buffer (Promega). Samples were added to luciferase assay substrate (Promega) and luminsescence measured by the TD-20/20 Luminometer (Turner Designs/Turner BioSystems, Sunnyvale, CA). Control samples included luciferase assay substrate alone and luciferase assay substrate plus 1X reporter lysis buffer."}, "[3]": {"system": "lung cancer cell lines H157, A549, H1299, H727, U1752", "assay": "Western blot of Id1 in panel of lung cancer cell lines", "format": "cell-based", "conditions": "1 μM; 48 h; all cell lines of the panel", "protocol": "as §2\nAdditional file 1: Figure S1. […]"}, "[4]": {"system": "lung cancer cell lines H157, A549, H1299, H727, U1752", "assay": "Cell counts in panel of lung cancer cell lines", "format": "cell-based", "conditions": "1 μM; 7 days; percent of vehicle control", "protocol": "Cells were plated into 6 well plates at 10^5 cells per well and treated with 1 μM DMSO or antagonist for 7 days. The cells were detached with trypsin, stained with trypan blue, and the number of live cells counted using a hemocytometer.\nAdditional file 1: Figure S1. […] Data is depicted as percent of vehicle control. Experiments were performed 3 times. (TIF 749 kb) Additional file 2: Figure S2. […] Non-specific band from the same Western blot was used as a loading control. Experiments performed at least 3 times. (TIF 2680 kb) Additional file 3: Figure S3. Pharmacokinetics of DMH2. […] (TIF 1187 kb) Additional file 4: Figure S4. […] (A-B) Western blot of tumor xenografts treated with BMP inhibitors for 24 h and 9 days. […] (E-G) Data depict the mean as the percent of control. Experiments were performed at least 3 times. (TIF 9413 kb) Additional file 5: Figure S5. […] The data represents the mean of at least 4 experiments. (TIF 359 kb) Additional file 6: Figure S6. […] The studies represent the mean of at least 3 independent experiments. […] (TIF 2411 kb)"}, "[5]": {"conditions": "24 and 48 h, suppression at higher concentrations"}}, "data": [{"smiles": "c1ccc2c(-c3cnn4cc(-c5ccc(OCCN6CCOCC6)cc5)cnc34)ccnc2c1", "note": "[DMH2]", "values": [{"measurement": "IC50", "setting": "Alk2/ACVRR1", "value": 23, "unit": "nM"}, {"measurement": "IC50", "setting": "Alk3/BMPR1A", "value": 92, "unit": "nM"}, {"measurement": "IC50", "setting": "Alk6", "value": 43, "unit": "nM"}, {"measurement": "percent binding plasma proteins", "setting": "[1]", "value": 98.6, "unit": "% +/−0.7"}, {"measurement": "tumor luminescence (Id1 promoter) compared to baseline", "setting": "[2]", "value": "increased"}, {"measurement": "increase in the expression of Id1 protein compared to controls", "setting": "H1299 tumor xenografts; 9 days, twice-daily injection, normalized to GAPDH", "value": 103, "unit": "%"}, {"measurement": "phosphorylated TAK1 and Smad2 in tumor xenografts", "setting": "H1299 tumor xenografts; treated for 24 h and 9 days", "value": "increase"}, {"measurement": "low dose that can cause an increase in the expression of Id1", "setting": "A549 cells; [5]", "value": 0.5, "unit": "µM"}, {"measurement": "expression of activated caspase-3", "setting": "A549 cells; 48 h", "value": "induced"}, {"measurement": "expression of phosphorylated MEK-1/2", "setting": "A549 cells; 48 h", "value": "increase"}, {"measurement": "expression of Smad2", "setting": "A549 cells; 3 days", "value": "very significant decrease"}, {"measurement": "expression of TAK1 and phosphorylation of NF-kappa B subunit p65", "setting": "A549 cells; 3 days", "value": "decrease"}, {"measurement": "expression of XIAP", "setting": "A549 cells; after 3 days", "value": "significant decrease"}, {"measurement": "phosphorylation of TAK1 and Smad2", "setting": "A549 cells; increasing doses, 48 h", "value": "increase in phosphorylation of TAK1and Smad2 at lower doses, which tapered off at higher doses"}, {"measurement": "expression of phosphorylated MEK-1/2", "setting": "H1299 cells; 24 and 48 h", "value": "increase"}, {"measurement": "low dose that can cause an increase in the expression of Id1", "setting": "H1299 cells; [5]", "value": 0.5, "unit": "µM"}, {"measurement": "expression of activated caspase-3", "setting": "H1299 cells; 48 h", "value": "induced"}, {"measurement": "expression of Smad2", "setting": "H1299 cells; 3 days", "value": "very significant decrease"}, {"measurement": "expression of TAK1 and phosphorylation of NF-kappa B subunit p65", "setting": "H1299 cells; 3 days", "value": "decrease"}, {"measurement": "expression of XIAP", "setting": "H1299 cells; after 3 days (cell line not stated for DMH1 and LDN)", "value": "significant decrease"}, {"measurement": "phosphorylation of TAK1 and Smad2", "setting": "H1299 cells; increasing doses, 48 h", "value": "increase in phosphorylation of TAK1and Smad2 at lower doses, which tapered off at higher doses"}, {"measurement": "suppression of Id1 promoter activity in comparison to DMH1", "setting": "H1299 Id1-luc cells", "value": "significantly greater suppression"}, {"measurement": "expression of Id1", "setting": "[3]", "value": "decreased"}, {"measurement": "growth (cell counts)", "setting": "[4]", "value": "inhibited growth in all of the cell lines"}]}]}
